Measured values published in ChEMBL document CHEMBL4680378, “Discovery of a Lead Compound for Specific Inhibition of Type I Collagen Production in Fibrosis” (ACS Med Chem Lett, 2021).
Calls of active or inactive are those of the source. No cut-off for these calls is given here.

Columns and labels:
[1] = Cytotoxicity against human lung fibroblasts assessed as effect on cell viability; assay type: tissue-based; settings: primary lung fibroblast
[2] = biological target: La-related protein 6 (Homo sapiens) (UniProt Q9BRS8); assay: Inhibition of LARP6 La module (unknown origin) binding with collagen 5' stem loop mRNA assessed as decrease in La module dimer bound band intensity at 1 to 50 uM by gel mobility shift assay; settings: dose 1-50 µM
[3] = Inhibition of type 1 collagen alpha1 polypeptide secretion in human lung fibroblasts incubated for 18 hrs followed by addition of fresh medium and measured after 3 hrs by Western blot analysis; assay type: functional, tissue-based; settings: Primary lung fibroblast
[4] = biological target: La-related protein 6 (Homo sapiens) (UniProt Q9BRS8); assay: Inhibition of LARP6 La domain (unknown origin) binding with collagen 5' stem loop mRNA at > 1 uM by gel mobility shift assay; settings: dose microM >1
[5] = biological target: La-related protein 6 (Homo sapiens) (UniProt Q9BRS8); assay: Inhibition of LARP6 La domain (unknown origin) binding with collagen 5' stem loop mRNA assessed as decrease in La domain bound band intensity at 1 to 3 uM by gel mobility shift assay; settings: dose 1-3 µM
Primary lung fibroblast [6] = assay: Inhibition of type 1 collagen alpha2 polypeptide secretion in human lung fibroblasts at 4 uM incubated for 18 hrs followed by addition of fresh medium and measured after 3 hrs by Western blot analysis; assay type: functional, tissue-based
[7] = Inhibition of type 1 collagen alpha2 polypeptide secretion in human lung fibroblasts incubated for 18 hrs followed by addition of fresh medium and measured after 3 hrs by Western blot analysis; assay type: functional, tissue-based; settings: Primary lung fibroblast
[8] = biological target: La-related protein 6 (Homo sapiens) (UniProt Q9BRS8); assay: Inhibition of LARP6 La module (unknown origin) binding with collagen 5' stem loop mRNA assessed as decrease in La module monomer bound band intensity at 1 to 50 uM by gel mobility shift assay; settings: dose 1-50 µM
[9] = biological target: La-related protein 6 (Homo sapiens) (UniProt Q9BRS8); assay: Inhibition of LARP6 La module (unknown origin) binding with collagen 5' stem loop mRNA at > 2.5 uM by gel mobility shift assay; settings: dose microM >2.5
Primary lung fibroblast [10] = assay: Inhibition of type 1 collagen alpha1 polypeptide secretion in human lung fibroblasts at 5 uM incubated for 18 hrs followed by addition of fresh medium and measured after 3 hrs by Western blot analysis; assay type: functional, tissue-based
Primary lung fibroblast [11] = assay: Inhibition of type 1 collagen secretion in human lung fibroblasts at 5 ug/ml incubated for 18 hrs followed by addition of fresh medium and measured after 3 hrs by Western blot analysis; assay type: functional, tissue-based; settings: dose 5.0 µg/ml

La-related protein 6 (Homo sapiens), sequence (Q9BRS8 whole entry, looked up, the tested form may be a part): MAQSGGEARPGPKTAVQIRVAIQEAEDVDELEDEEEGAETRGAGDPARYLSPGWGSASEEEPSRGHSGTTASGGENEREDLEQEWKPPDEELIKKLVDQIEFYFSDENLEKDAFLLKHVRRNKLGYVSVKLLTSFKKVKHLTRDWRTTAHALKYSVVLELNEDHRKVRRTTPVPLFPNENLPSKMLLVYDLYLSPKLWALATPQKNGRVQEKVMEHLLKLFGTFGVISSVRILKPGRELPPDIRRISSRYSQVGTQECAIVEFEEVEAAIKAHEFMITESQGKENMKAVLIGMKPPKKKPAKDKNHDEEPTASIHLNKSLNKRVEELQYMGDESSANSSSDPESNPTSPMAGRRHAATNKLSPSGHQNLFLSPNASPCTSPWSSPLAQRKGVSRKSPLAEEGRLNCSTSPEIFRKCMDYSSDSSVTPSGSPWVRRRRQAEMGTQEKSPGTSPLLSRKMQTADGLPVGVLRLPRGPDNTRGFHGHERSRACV

Compound | Activity [1] | inhibition [2] | IC50 [3] | inhibition [4] | inhibition [5] | inhibition (Primary lung fibroblast [6]) | IC50 [7] | inhibition [8] | inhibition [9] | inhibition (Primary lung fibroblast [10]) | inhibition (Primary lung fibroblast [11])
CCCCCCCCCCCCCC(=O)N[C@H]1C[C@@H](C(N)=O)N(c2cc(N3CCN(C(=O)c4cc(C)cc(C)c4)CC3)ncn2)C1 | Non-Toxic | Active | 4.4 µM | Active | Active | Active | 3.1 µM | Active | Active | Active | –
CCCCCCCCCCCCCC(=O)N[C@H]1C[C@@H](C(N)=O)N(c2cc(N3CCN(C(=O)CCCc4ccccc4)CC3)ncn2)C1 | – | – | – | – | – | – | – | – | – | – | Active
